# Measured values: article PMC6701825, “Antiproliferative and Antimigratory Effects of a Novel YAP–TEAD Interaction Inhibitor Identified Using in Silico Molecular Docking” (Journal of Medicinal Chemistry, 2019)
# Assays:
# [1] = system: TEAD-dependent transcriptional activity; test: 8xTEAD secreted nanoluciferase (TEAD-NLUC) reporter assay in HeLa cells; type: cell-based, human; conditions: HeLa, indicated concentrations, 6 h
# Text: The shortlisted sets of 16 compounds were first assayed for their ability to inhibit TEAD-dependent transcriptional activity in HeLa cells that had been transduced with a recombinant lentiviral vector expressing secreted bioluminescent nanoluciferase (NLUC) reporter gene enzyme, which is expressed under the control of a promoter region containing eight TEAD DNA-binding elements (TEAD-NLUC).
# Compounds were initially screened for ability to inhibit TEAD-dependent transcriptional activity in HeLa cells transduced with a lentiviral vector expressing secreted nanoluciferase under the control of multimerized TEAD consensus elements (5′-[…]-3′). 8xTEAD NanoLuc was generated by cloning the 8xTEAD promoter from the 8xTEAD-Luc plasmid (Addgene #34615) into the pENTR gateway entry vector (Promega). This was then recombined into pLNT-sec-Nluc-2A-eGFP destination vector (supplied by Tristan McKay; University of Manchester). Lentiviruses were generated by Viafect-mediated co-transfection of pLNT8x-TEAD-sec-Nluc-2A-eGFP, Δ8.9, and VSV-G vectors into HEK293T cells (ATCC), and lentiviral-containing culture supernatants were used to infect HeLa cells in the presence of 6 μg/mL polybrene. For compound screening, 8xTEAD NanoLuc-transduced HeLa cells were seeded at 2 × 10^4 cells/well in 96-well plates. After 48 h, the cells were washed in PBS and incubated with test compounds at the indicated concentrations for 2 h. The cells were washed again in PBS and incubated with the compound for a further 4 h. Conditioned culture medium (50 μL) was assayed for secreted nanoluciferase activity using NanoGlo activity assays kit (Promega) and a Glomax Discover luminometer.
# HeLa cells = test: Live/dead cell viability assay (ethidium homodimer-1) in HeLa cells; type: cell-based; conditions: 6 hours
# Description: Cell viability was quantified using the live/dead viability/cytotoxicity assay standard protocol (Invitrogen). Maximum cell death was quantified by incubating cells for 10 min with 0.1% Triton-X, followed by incubation with 0.4 μM ethidium homodimer-1 for an additional 10 min. Fluorescence was measured using a GloMax Discover multiplate reader (Promega).
# Supplement Figure 3: Effect of shortlisted compounds on cell viability
# (§1) HeLa cells transduced with TEAD-NLUC reporter were treated with indicated compounds at 100 µM for 6 hours (n=3). Cell viability was quantified by staining with 0.4 µM ethidium homodimer-1 and ethidium homodimer-1 uptake quantified by measuring fluorescence at 645 nm using a Glomax Discover plate reader.
# (1 picture or pasted object on this page, not shown here)
# as §1, with “Supplement Figure 6: Effect of CPD3, CPD3.1, CPD3.2 and CPD 3.3 on cell viability HeLa” for “HeLa”, “concentrations of CPD3, CPD3.1, CPD3.2 and CPD 3.3” for “compounds at 100 µM”, “plate” for “plate reader.”
# [2] = indicated concentrations, HeLa (Supplement Figure 6)
Compound,effect on TEAD-NLUC activity [1],effect on cell viability (HeLa cells; [2]),"effect on cell viability (HeLa cells; 100 µM, HeLa TEAD-NLUC cells)"
OCC(O)CN1CCNCC1 (centres unmarked) [CPD3.2],Neither CPD3.2 nor CPD3.3 had any effect,Neither CPD3.2 nor CPD3.3 had any effect,–
O=C(O)c1ccco1 [CPD3.3],Neither CPD3.2 nor CPD3.3 had any effect,Neither CPD3.2 nor CPD3.3 had any effect,–
O=C(NCCn1ncc2c(N3CCN(c4ncccn4)CC3)ncnc21)C12CC3CC(CC(C3)C1)C2 [CPD8],–,–,without significantly affecting cell viability
